Six molecules from US7348322B2, “Glucocorticoid receptor modulators as antiinflammatory agents” (Roche Palo Alto LLC, priority 2005, dated 2008) can be followed below.

The target of the experiment is T1, Human recombinant purified glucocorticoid receptor (Homo sapiens, UniProt P04150).
T1 sequence (P04150 1-777): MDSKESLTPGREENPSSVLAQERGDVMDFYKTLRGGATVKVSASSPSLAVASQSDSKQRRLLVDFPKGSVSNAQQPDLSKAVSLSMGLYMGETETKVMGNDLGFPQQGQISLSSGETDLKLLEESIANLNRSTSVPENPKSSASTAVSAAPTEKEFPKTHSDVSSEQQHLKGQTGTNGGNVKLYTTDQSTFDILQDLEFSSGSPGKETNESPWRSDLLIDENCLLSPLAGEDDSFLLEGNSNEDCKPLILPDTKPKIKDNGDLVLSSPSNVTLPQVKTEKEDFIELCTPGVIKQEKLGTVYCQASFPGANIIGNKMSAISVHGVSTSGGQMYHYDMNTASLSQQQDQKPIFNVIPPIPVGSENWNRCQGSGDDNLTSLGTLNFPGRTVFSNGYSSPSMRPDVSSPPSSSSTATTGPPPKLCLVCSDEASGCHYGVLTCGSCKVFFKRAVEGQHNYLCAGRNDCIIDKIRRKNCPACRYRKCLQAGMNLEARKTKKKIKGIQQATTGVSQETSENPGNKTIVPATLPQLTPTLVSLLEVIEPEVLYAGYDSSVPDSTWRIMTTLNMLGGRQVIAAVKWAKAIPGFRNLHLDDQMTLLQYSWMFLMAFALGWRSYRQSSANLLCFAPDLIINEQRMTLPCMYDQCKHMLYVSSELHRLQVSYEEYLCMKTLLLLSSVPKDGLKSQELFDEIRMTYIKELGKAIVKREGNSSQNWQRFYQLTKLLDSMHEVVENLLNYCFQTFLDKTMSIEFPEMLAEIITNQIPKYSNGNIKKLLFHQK
Briefly: Glucocorticoid receptor competitive binding assay (3H-dexamethasone). The settings on record: competition with 2 nM 3H-Dexamethasone, 1 nM GR, 4° C. overnight; read-out: Binding Affinity Ki. The method, then: The affinity of glucocorticoid receptor antagonists for the glucocorticoid receptor was determined in competitive binding assays by the ability of the antagonist to compete with tritiated dexamethasone.
All assay steps were performed on ice in 96-well plates. Binding buffer contained 10 mM potassium phosphate pH 7.4, 20 mM Na2Mo4, 100 μM EDTA, 2% DMSO, and 5 mM DTT. Human recombinant purified glucocorticoid receptor was used at 1 nM. Compounds tested had up to 2% DMSO final concentration. Non-specific binding condition was 1 μM dexamethasone. The radioligand used for the competition assay was 2 nM ^3H-Dexamethasone (83 Ci/mmol stock solution). Buffer, compounds or vehicles, GR, and radioligand were incubated at 4° C. overnight. Unifilter GF/B 96-well filter plates were treated with 0.5% PEI after incubation. Samples were transferred to filter plates by a cell harvester. Filter plates were washed five times with 50 mM Tris pH 7.5 and 5 mM EDTA wash buffer. Samples were dried at 65° C. for about 1 hr. Scintillation fluid was added to filter plates at 50 μL/ well and ^3H cpm were measured on the TopCount scintillation counter.
Turning to `ON=C(CNc1ccc(-c2cnco2)cc1)CC1(c2ccccc2C(F)(F)F)CCC1` (racemic) [Example 4, 1-(4-Oxazol-5-yl-phenylamino)-3-[1-(2-trifluoromethyl-phenyl)-cyclobutyl]-propan-2-one oxime], the Ki was determined as 851 nM. Turning to `Cc1noc(=O)c2ccc(NCC(=O)CC3(c4ccccc4C(F)(F)F)CCC3)cc12` [Example 1, 4-Methyl-6-{2-oxo-3-[1-(2-trifluoromethyl-phenyl)-cyclobutyl]-propylamino}-benzo[d][1,2]oxazin-1-one], the Ki worked out at 405 nM. To `Cc1noc(=O)c2ccc(NC/C(CC3(c4ccccc4C(F)(F)F)CCC3)=N\O)cc12` [Example 2, 1-(4-Methyl-1-oxo-1H-benzo[d][1,2]oxazin-6-ylamino)-3-[1-(2-trifluoromethyl-phenyl)-cyclobutyl]propan-2-one oxime] belongs 89 nM; to `O/N=C(\CNc1cccc(-c2cnco2)c1)CC1(c2ccccc2C(F)(F)F)CCC1` [Example 3, 1-(3-Oxazol-5-yl-phenylamino)-3-[1-(2-trifluoromethyl-phenyl)-cyclobutyl]-propan-2-one oxime], 2100 nM; to `O=C(CC1(c2ccccc2C(F)(F)F)CCC1)C(=O)Nc1ccc(-c2cnco2)cc1` [Example 5, N-(4-Oxazol-5-yl-phenyl)-2-oxo-3-[1-(2-trifluoromethyl-phenyl)-cyclobutyl]-propionamide], 723 nM. With `O=C(CC1(c2ccccc2C(F)(F)F)CCC1)C(=O)Nc1cccc(-c2ccno2)c1` [Example 6, N-(3-Isoxazol-5-yl-phenyl)-2-oxo-3-[1-(2-trifluoromethyl-phenyl)-cyclobutyl]-propionamide], the Ki is 2400 nM.
